Results published in the supplement of paper PMC10307832.

Legend:
Assay in all cases: relative viability (nuclei count vs DMSO), 5 days (fraction); higher = more cells survive
[1] = compound: C1/C(=C\C2=CC=CS2)/C(=O)/C(=C/C3=CC=CS3)/C1 + CC(=O)c1c(C)c2cnc(Nc3ccc(N4CCNCC4)cn3)nc2n(C2CCCC2)c1=O [Palbociclib] (partner 0.5 µM)
Outline: (§1)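 Cells from lung cancer lines were seeded into 1536-well plates and, one day later, dosed by pin tool. Treatments were either a single drug or a fixed dose of an anchor drug with five library-drug doses (not always all listed) in √10 steps. After 5 days, nuclei were stained in a one-step fixation (final 0.05% Triton X-100, 1% formaldehyde, 1 ug/ml Hoechst) and counted on 4× images, and relative viability is the treated-to-vehicle nuclei ratio, as the median of duplicate plates.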

[2] = compound: C1=CC(=CC=C1C2=CC(=C(S2)NC(=O)N)C(=O)N)F [TPCA-1] + CC(=O)Nc1cccc(-n2c(=O)n(C3CC3)c(=O)c3c(Nc4ccc(I)cc4F)n(C)c(=O)c(C)c32)c1 [Trametinib] (partner 0.02 µM)
Outline: as §1

[3] = compound: C1=CC(=CC=C1C2=CC(=C(S2)NC(=O)N)C(=O)N)F [TPCA-1] + Cc1nc(NC(=O)N2CCC[C@H]2C(N)=O)sc1-c1ccnc(C(C)(C)C(F)(F)F)c1 [Alpelisib] (partner 2 µM)
Outline: as §1

[4] = compound: C[C@]12O[C@H](C[C@]1(O)CO)n1c3ccccc3c3c4c(c5c6ccccc6n2c5c31)CNC4=O [Lestaurtinib] + CCNC(=O)c1noc(-c2cc(C(C)C)c(O)cc2O)c1-c1ccc(CN2CCOCC2)cc1 [Luminespib] (partner 0.01 µM)
Outline: as §1

SK-LU-1
relative viability ([1]; first compound 0.2 µM): 0.39 | relative viability ([1]; first compound 0.6325 µM): 0.443 | relative viability ([1]; first compound 2 µM): 0.427 | relative viability ([1]; first compound 6.325 µM): 0.357 | relative viability ([1]; first compound 20 µM): 0.399 | relative viability ([2]; first compound 0.04 µM): 0.532 | relative viability ([2]; first compound 0.1265 µM): 0.452 | relative viability ([2]; first compound 0.4 µM): 0.474 | relative viability ([2]; first compound 1.265 µM): 0.396 | relative viability ([2]; first compound 4 µM): 0.263 | relative viability ([3]; first compound 0.04 µM): 1.16 | relative viability ([3]; first compound 0.1265 µM): 0.805 | relative viability ([3]; first compound 0.4 µM): 1 | relative viability ([3]; first compound 1.265 µM): 0.605 | relative viability ([3]; first compound 4 µM): 0.452 | relative viability ([4]; first compound 0.005 µM): 0.206 | relative viability ([4]; first compound 0.01581 µM): 0.22 | relative viability ([4]; first compound 0.05 µM): 0.177 | relative viability ([4]; first compound 0.1581 µM): 0.203 | relative viability ([4]; first compound 0.5 µM): 0.215

LOU-NH91
relative viability ([1]; first compound 0.2 µM): 0.564 | relative viability ([1]; first compound 0.6325 µM): 0.584 | relative viability ([1]; first compound 2 µM): 0.523 | relative viability ([1]; first compound 6.325 µM): 0.507 | relative viability ([1]; first compound 20 µM): 0.55 | relative viability ([2]; first compound 0.04 µM): 0.8 | relative viability ([2]; first compound 0.1265 µM): 0.735 | relative viability ([2]; first compound 0.4 µM): 0.835 | relative viability ([2]; first compound 1.265 µM): 0.773 | relative viability ([2]; first compound 4 µM): 0.714 | relative viability ([3]; first compound 0.04 µM): 0.769 | relative viability ([3]; first compound 0.1265 µM): 0.652 | relative viability ([3]; first compound 0.4 µM): 0.736 | relative viability ([3]; first compound 1.265 µM): 0.78 | relative viability ([3]; first compound 4 µM): 0.669 | relative viability ([4]; first compound 0.005 µM): 0.341 | relative viability ([4]; first compound 0.01581 µM): 0.262 | relative viability ([4]; first compound 0.05 µM): 0.254 | relative viability ([4]; first compound 0.1581 µM): 0.301 | relative viability ([4]; first compound 0.5 µM): 0.224

LXF-289
relative viability ([1]; first compound 0.2 µM): 0.648 | relative viability ([1]; first compound 0.6325 µM): 0.615 | relative viability ([1]; first compound 2 µM): 0.567 | relative viability ([1]; first compound 6.325 µM): 0.577 | relative viability ([1]; first compound 20 µM): 0.56 | relative viability ([2]; first compound 0.04 µM): 0.7 | relative viability ([2]; first compound 0.1265 µM): 0.629 | relative viability ([2]; first compound 0.4 µM): 0.635 | relative viability ([2]; first compound 1.265 µM): 0.653 | relative viability ([2]; first compound 4 µM): 0.565 | relative viability ([3]; first compound 0.04 µM): 1.07 | relative viability ([3]; first compound 0.1265 µM): 0.951 | relative viability ([3]; first compound 0.4 µM): 1.05 | relative viability ([3]; first compound 1.265 µM): 0.955 | relative viability ([3]; first compound 4 µM): 0.783 | relative viability ([4]; first compound 0.005 µM): 0.833 | relative viability ([4]; first compound 0.01581 µM): 0.746 | relative viability ([4]; first compound 0.05 µM): 0.421 | relative viability ([4]; first compound 0.1581 µM): 0.33 | relative viability ([4]; first compound 0.5 µM): 0.293

NCI-H1299
relative viability ([3]; first compound 0.04 µM): 1.11 | relative viability ([3]; first compound 0.1265 µM): 1.09 | relative viability ([3]; first compound 0.4 µM): 1.05 | relative viability ([3]; first compound 1.265 µM): 1.04 | relative viability ([3]; first compound 4 µM): 1.1

HARA
relative viability ([1]; first compound 0.2 µM): 0.278 | relative viability ([1]; first compound 0.6325 µM): 0.238 | relative viability ([1]; first compound 2 µM): 0.337 | relative viability ([1]; first compound 6.325 µM): 0.196 | relative viability ([1]; first compound 20 µM): 0.32 | relative viability ([2]; first compound 0.04 µM): 0.8 | relative viability ([2]; first compound 0.1265 µM): 1.11 | relative viability ([2]; first compound 0.4 µM): 0.7 | relative viability ([2]; first compound 1.265 µM): 0.63 | relative viability ([2]; first compound 4 µM): 0.677 | relative viability ([3]; first compound 0.04 µM): 0.952 | relative viability ([3]; first compound 0.1265 µM): 0.675 | relative viability ([3]; first compound 0.4 µM): 1.01 | relative viability ([3]; first compound 1.265 µM): 0.725 | relative viability ([3]; first compound 4 µM): 0.6 | relative viability ([4]; first compound 0.005 µM): 0.682 | relative viability ([4]; first compound 0.01581 µM): 0.847 | relative viability ([4]; first compound 0.05 µM): 0.681 | relative viability ([4]; first compound 0.1581 µM): 0.872 | relative viability ([4]; first compound 0.5 µM): 0.0984

LU99A
relative viability ([1]; first compound 0.2 µM): 0.402 | relative viability ([1]; first compound 0.6325 µM): 0.395 | relative viability ([1]; first compound 2 µM): 0.481 | relative viability ([1]; first compound 6.325 µM): 0.368 | relative viability ([1]; first compound 20 µM): 0.38 | relative viability ([2]; first compound 0.04 µM): 0.66 | relative viability ([2]; first compound 0.1265 µM): 0.487 | relative viability ([2]; first compound 0.4 µM): 0.553 | relative viability ([2]; first compound 1.265 µM): 0.466 | relative viability ([2]; first compound 4 µM): 0.284 | relative viability ([3]; first compound 0.04 µM): 0.564 | relative viability ([3]; first compound 0.1265 µM): 0.445 | relative viability ([3]; first compound 0.4 µM): 0.5 | relative viability ([3]; first compound 1.265 µM): 0.388 | relative viability ([3]; first compound 4 µM): 0.243 | relative viability ([4]; first compound 0.005 µM): 0.235 | relative viability ([4]; first compound 0.01581 µM): 0.245 | relative viability ([4]; first compound 0.05 µM): 0.221 | relative viability ([4]; first compound 0.1581 µM): 0.249 | relative viability ([4]; first compound 0.5 µM): 0.185

201T
relative viability ([1]; first compound 0.2 µM): 0.348 | relative viability ([1]; first compound 0.6325 µM): 0.37 | relative viability ([1]; first compound 2 µM): 0.349 | relative viability ([1]; first compound 6.325 µM): 0.353 | relative viability ([1]; first compound 20 µM): 0.348 | relative viability ([2]; first compound 0.04 µM): 0.717 | relative viability ([2]; first compound 0.1265 µM): 0.729 | relative viability ([2]; first compound 0.4 µM): 0.691 | relative viability ([2]; first compound 1.265 µM): 0.733 | relative viability ([2]; first compound 4 µM): 0.751 | relative viability ([3]; first compound 0.04 µM): 1 | relative viability ([3]; first compound 0.1265 µM): 0.998 | relative viability ([3]; first compound 0.4 µM): 1.01 | relative viability ([3]; first compound 1.265 µM): 1.08 | relative viability ([3]; first compound 4 µM): 0.983 | relative viability ([4]; first compound 0.005 µM): 1.16 | relative viability ([4]; first compound 0.01581 µM): 1.07 | relative viability ([4]; first compound 0.05 µM): 1.14 | relative viability ([4]; first compound 0.1581 µM): 1.09 | relative viability ([4]; first compound 0.5 µM): 0.357

HCC-827
relative viability ([1]; first compound 0.2 µM): 0.487 | relative viability ([1]; first compound 0.6325 µM): 0.481 | relative viability ([1]; first compound 2 µM): 0.522 | relative viability ([1]; first compound 6.325 µM): 0.463 | relative viability ([1]; first compound 20 µM): 0.525 | relative viability ([2]; first compound 0.04 µM): 0.545 | relative viability ([2]; first compound 0.1265 µM): 0.545 | relative viability ([2]; first compound 0.4 µM): 0.527 | relative viability ([2]; first compound 1.265 µM): 0.596 | relative viability ([2]; first compound 4 µM): 0.421 | relative viability ([3]; first compound 0.04 µM): 1.09 | relative viability ([3]; first compound 0.1265 µM): 0.933 | relative viability ([3]; first compound 0.4 µM): 1.08 | relative viability ([3]; first compound 1.265 µM): 0.905 | relative viability ([3]; first compound 4 µM): 0.491 | relative viability ([4]; first compound 0.005 µM): 0.332 | relative viability ([4]; first compound 0.01581 µM): 0.505 | relative viability ([4]; first compound 0.05 µM): 0.344 | relative viability ([4]; first compound 0.1581 µM): 0.289 | relative viability ([4]; first compound 0.5 µM): 0.33
